The results in this text go back to PMC9917023, “Stabilization of Monomeric Tau Protein by All D-Enantiomeric Peptide Ligands as Therapeutic Strategy for Alzheimer’s Disease and Other Tauopathies” (International Journal of Molecular Sciences, 2023).

The data set deals with brain endothelial cells (RBMVEC) and astroglial cells (CTX TNA2).

Method: Each peptide was tested at different time points in triplicate next to an unseeded negative control (“Empty”) and quantitatively analyzed via HPLC using a calibration curve to determine the concentration of the peptide in the receiving chamber at each point in time (Figure 11). From these values, the volume of each chamber, and the respective time, a Papp permeability coefficient in cm²/s was calculated for each substance to represent its ability to cross the in vitro blood–brain barrier model.
An amount equaling 1 mg/mL TF2D-5 (A) or TF2D-5a (B) was added to an insert that was seeded and covered with endothelial and astroglial cells, representing the in vitro blood–brain barrier, or an empty insert serving as a control. After different time points, samples were taken and analyzed by quantitative HPLC analysis. Data given as mean ± SD out of three independent replicates.
Brain endothelial cells from rats and astroglial cells were used to cultivate the different sides of the porous membrane.
Brain endothelial cells from rats (RBMVEC, Cell Applications Inc., R840-05a, San Diego, CA, USA) were cultivated in Complete Classic medium (Cell Systems, Kirkland, WA, USA, 4Z0-500), and rat astroglial cells (CTX TNA2, ATCC, CRL-2006) were cultivated in Complete Classic medium (Cell Systems, Kirkland, WA, USA, 4Z0-500). The cells were allowed to grow in a humidified incubator with 5% CO2 at 37 °C and a maximum of 20 passages. The cells were passaged every 3 to 5 days, according to their confluence.
In order to set up the in vitro BBB model, the astroglial cells were seeded at a density of 600.000 cells/cm² on the outer (basolateral, “brain”) side of an insert with a porous membrane (Corning Transwell polycarbonate membrane cell culture inserts, CLS3415, 3 µM pore size) and allowed to grow/adhere overnight in the Complete Classic medium. The next day, brain endothelial cells were seeded at a density of 600.000 cells/cm² on the inner side (apical, “blood”) of the corresponding membrane. The seeded inserts were then cultivated to grow to full confluence over a period of 5 to 7 days, with the medium renewed daily. […] Prior to this, TEER (transendothelial electrical resistance values) were measured in each well to ensure the integrity of the in vitro BBB. At 0, 30, 60, 90, 120, 150, 180, and 240 min, 50 µL of the medium out of the outer chamber was taken and analyzed by HPLC. This 50 µL would then be replaced by the same amount of fresh serum-free medium to keep the fluid levels equal across both chambers. This slight dilution was factored into the following calculations. Furthermore, a dilution series of each reagent was analyzed alongside the samples as a calibration to quantify the analysis. […] The Papp values were calculated as follows (higher is better): Papp =(V/A∗C)∗(Dc/Dt)

With `Cn1c(=O)c2c(ncn2C)n(C)c1=O` [Caffeine, reference compound], the Papp permeability coefficient is 31.8 ×10⁻⁶ cm/s. `O=C1OC2(c3ccc(O)cc3Oc3cc(O)ccc32)c2ccccc21` [Fluorescein, reference compound]: the Papp permeability coefficient was 0.886 ×10⁻⁶ cm/s.
